The text below walks through data of patent US20050222158A1, “Method of treating migraine headaches using calcitonin gene related peptide mimetics” (priority 2004, published 2005).

A word on the IC50: it is the midpoint of a concentration-inhibition curve. A high value points to weaker potency in that assay.

For this assay, the target named is T1, human CGRP receptor (Homo sapiens, UniProt O60894+Q16602).
T1 construct: SK-N-MC cells that endogenously express the human CGRP receptor; endogenous in cells; host or cells: SK-N-MC cells (membrane homogenates)
T1 sequence (Q16602 23-461): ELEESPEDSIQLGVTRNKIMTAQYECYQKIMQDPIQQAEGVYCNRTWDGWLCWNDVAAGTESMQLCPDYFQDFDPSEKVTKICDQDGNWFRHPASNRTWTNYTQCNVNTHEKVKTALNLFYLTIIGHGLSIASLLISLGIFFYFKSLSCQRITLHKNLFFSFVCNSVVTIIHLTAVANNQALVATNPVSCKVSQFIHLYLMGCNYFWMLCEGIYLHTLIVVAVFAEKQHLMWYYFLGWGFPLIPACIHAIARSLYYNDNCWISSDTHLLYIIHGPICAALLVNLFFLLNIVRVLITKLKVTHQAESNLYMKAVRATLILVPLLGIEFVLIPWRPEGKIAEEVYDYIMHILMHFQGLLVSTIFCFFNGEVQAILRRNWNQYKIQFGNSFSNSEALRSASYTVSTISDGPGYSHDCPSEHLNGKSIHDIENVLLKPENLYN
T1 sequence (O60894 27-148): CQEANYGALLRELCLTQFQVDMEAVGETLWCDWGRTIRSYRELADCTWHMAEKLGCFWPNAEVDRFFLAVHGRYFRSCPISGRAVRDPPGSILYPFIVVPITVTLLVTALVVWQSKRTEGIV
Description: [125I]-CGRP radioligand binding assay, SK-N-MC cell homogenates. To be noted: 40 pM [125I]-CGRP, room temperature. The method, then: Tissue culture. SK-N-MC cells were grown at 37° C. in 5% CO2 as a monolayer in medium consisting of MEM with Earle's salts and L-glutamine (Gibco) supplemented with 10% fetal bovine serum (Gibco). Radioligand binding assays. Cells were rinsed twice with phosphate-buffered saline (155 mM NaCl, 3.3 mM Na2HPO4, 1.1 mM KH2PO4, pH 7.4), and incubated for 5-10 min. at 4° C. in hypotonic lysis buffer consisting of 10 mM Tris (pH 7.4) and 5 mM EDTA. Cells were transferred from plates to polypropylene tubes (16×100 mm), homogenized and centrifuged at 32,000×g for 30 min. Pellets were resuspended in buffer consisting of 50 mM Tris (pH 7.4) and 1 mM EDTA, homogenized, and centrifuged again at 32,000×g for 30 min. Pellets were resuspended in 100 mM Tris-Cl pH 7.5, 10 mM MgCl2, 0.1% mammalian protease inhibitor cocktail (Sigma) and stored at −80° C. until needed. On the day of an experiment, homogenates were thawed and homogenized again. Binding of [^125I]-CGRP (NEN) was carried out in buffer containing 50 mM Tris-Cl pH 7.5, 5 mM MgCl2, 0.5% BSA. Homogenates (3.5 μg protein/well) were incubated with competitor compounds (solubilized in 100% DMSO at 100× their final assay concentrations) for one hour at room temperature. Then [^125I]-CGRP was added (40 pM final concentration) and the reaction incubated for one additional hour at room temperature. […]

Regarding `CC(=O)c1ccc(NC(=O)N2CCC(=O)N3[C@@H]2CN(CCc2cccc(F)c2)C(=O)[C@@H]3CC(=O)OC2[C@H]3C[C@@H]4C[C@@H](C[C@H]2C4)C3)cc1` (stereo partly drawn) [Compound 29, {1-(4-Acetyl-phenylcarbamoyl)-(6S,9aS)-8-[2-(3-fluoro-phenyl)-ethyl]-4,7-dioxo-octahydro-pyrazino[1,2a]pyrimidin-6-yl}-acetic acid adamantan-2-yl ester], the IC50 stood at 5160 nM.
